In the test the test system is mushroom-derived tyrosinase. Description: In vitro (cell-free) tyrosinase activity assay with L-tyrosine as substrate. It is filed as biochemical. The following applies: 200 μM. The protocol:
The in vitro tyrosinase analyses were performed using a slight modification of the reported method (Ishihara Y et al., The journal of antibiotics (Tokyo) 1991; 44:25-32; An S M, Koh J S, Boo Y C, Phytotherapy Research 2010; 24:1175-1180). In brief, 250 μl of a 0.1M potassium phosphate buffer (pH 6.8) was put into a 24-well plate, and 25 μl of a mushroom-derived tyrosinase (2,000 units/mL), 25 μl of a sample, and 225 μl of distilled water were put into each well. The plate was incubated at 25° C. for 10 minutes, and 25 μl of 1 mM L-tyrosine used as a substrate was added to the wells. Then, the plate was incubated at 25° C. for 10 minutes, and the optical density of each well measured at 475 nm using a microplate reader (Sunrise-Basic Tecan, Austria). Each of the measured values was represented by a variation (%) with respect to the control. L-tyrosine was used as the substrate, and arbutin was used as the positive control. The results were represented by the relative tyrosinase activities to the non-treated control. Next, effects of L-AHG on the tyrosinase activities were examined using a cell-free assay system. Many reports disclosed that the mushroom-derived tyrosinase was primarily used as a model since it was able to be used in the form of a tablet. […] The results were represented by the relative tyrosinase activities to the non-treated control. […]

From patent US20170360671A1, “METHOD FOR PREPARING 3,6-ANHYDRO-L-GALACTOSE, AND USE THEREOF” (Korea University Research and Business Foundation, priority 2012, published 2017) come the findings set out here.

With `OC[C@H]1O[C@@H](Oc2ccc(O)cc2)[C@H](O)[C@@H](O)[C@@H]1O` [arbutin], the “tyrosinase activities relative to the non-treated control” value was 40%.
